Reference: patent US5445937A, “Detection of Alzheimer's disease and other diseases using an improved photoaffinity labeling method” (The University of Kentucky Research Foundation, priority 1993, dated 1995)
Like-named read-outs stand apart in the source and are kept apart here. Blank lines part the entries; values can stand above or below the molecule they belong to.

Experiments:
[1] = molecular target: T1, 42 kD protein found in the cerebral spinal fluid from Alzheimer's disease patients (Homo sapiens, UniProt P15104); assay: Photoaffinity labeling (photoinsertion) of the 42 kD protein in cerebral spinal fluid from Alzheimer's disease patients; assay type: binding
T1 construct: 42 kD protein found in the cerebral spinal fluid from Alzheimer's disease patients; from tissue; host or cells: cerebral spinal fluid of Alzheimer's disease patients
Method: Each assay was performed on 15 μl of cerebral spinal fluid. Although the amount of cerebral spinal fluid tested remained constant for each experiment, the protein concentration of each sample varied to some degree.
Each cerebral spinal fluid sample was photolabeled with [^32 P]8N3 ATP to identify the 42,000 Mr protein. The cerebral spinal fluid sample was comprised of cerebral spinal fluid, buffer, and water. The photoprobes used in each experiment were prepared by the inventor according to the procedures disclosed by Potter and Haley in Meth. in Enzymol., 91:613-633 (1983). Probes were also available commercially through ICN Radiochemicals 2727 Campus Drive, Irvine, Calif. 92715.
(§1) In each experiment, photoprobe was added to the cerebral spinal fluid sample and vortexed for 6 seconds. Each treated sample was then allowed to mix for an additional 24 seconds at room temperature before exposure to ultraviolet (UV) light.
(§2) The treated samples were placed on ice and exposed to UV light for 45 seconds. The UV light source, a hand-held UV lamp with an intensity of 6200 μW/cm^2, was positioned 1 cm from the sample. The UV activation of the photoprobe labeled samples was always conducted at 0° C.
(§3) Each sample was fractionated by 10% SDS-PAGE, run over a period of 21/2 to 3 hours, with constant amperage of 35 mA and an initial voltage of 140 volts. Since all of the proteins were very well separated on a 10% gel, a gradient was not necessary.
(§4) The quantity of protein, as well as the amount of the radioactivity incorporated into each protein, was quantified by densitometric scans of the exposed X-ray film, or of the stained gel, or by liquid scintillation spectrometry of the protein band excised from the gel. Significance was determined by analysis of variance at a rho level below […].
(§5) 2. Purified GS and the 42 kD protein found in the cerebral spinal fluid from Alzheimer's disease patients had the same approximate saturation and Kd values for binding ATP, 8-azido-ATP and 2-azido-ATP. […] Therefore, both GS and the 42 kD protein in the cerebral spinal fluid from Alzheimer's disease patients had the same nucleotide binding properties.

[2] = molecular target: T2, Purified GS (glutamine synthetase) (Homo sapiens, UniProt P15104); assay: Photoaffinity labeling (photoinsertion) of purified glutamine synthetase; assay type: binding, sheep
T2 construct: purified from sheep brain; purchased Sigma; host or cells: sheep brain
Method: as §1, §2, §3, §4
(§6) 1. Purified GS (purchased from Sigma, purified from sheep brain) comigrated on SDS-PAGE identically with the 42,000 Mr protein in the cerebral spinal fluid from Alzheimer's disease patients.
as §5
(§7) Purified glutamine synthetase from sheep brain was photolabeled by the above-described method, but under various ionic conditions.

[3] = system: T3, Purified GS (glutamine synthetase); assay: as above; assay type: binding, sheep; settings: purified GS
T3 construct: purified from sheep brain; purchased Sigma; host or cells: sheep brain
Method: as §1, §2, §3, §4, §6, §5, §7

[4] = system: glutamine synthetase; assay: Enzymatic activity of glutamine synthetase; assay type: biochemical, sheep; settings: 10 μM

T1 sequence (P15104 2-373 limits assumed): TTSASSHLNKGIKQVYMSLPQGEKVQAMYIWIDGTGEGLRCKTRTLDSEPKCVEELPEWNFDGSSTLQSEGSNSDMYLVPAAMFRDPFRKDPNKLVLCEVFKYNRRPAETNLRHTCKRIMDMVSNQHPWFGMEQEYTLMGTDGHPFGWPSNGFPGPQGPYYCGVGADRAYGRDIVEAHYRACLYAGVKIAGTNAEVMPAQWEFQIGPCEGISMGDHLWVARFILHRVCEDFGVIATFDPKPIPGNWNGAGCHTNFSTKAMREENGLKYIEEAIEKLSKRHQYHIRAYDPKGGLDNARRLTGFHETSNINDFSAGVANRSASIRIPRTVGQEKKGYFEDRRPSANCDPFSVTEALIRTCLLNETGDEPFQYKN
T2 sequence (P15104 whole entry): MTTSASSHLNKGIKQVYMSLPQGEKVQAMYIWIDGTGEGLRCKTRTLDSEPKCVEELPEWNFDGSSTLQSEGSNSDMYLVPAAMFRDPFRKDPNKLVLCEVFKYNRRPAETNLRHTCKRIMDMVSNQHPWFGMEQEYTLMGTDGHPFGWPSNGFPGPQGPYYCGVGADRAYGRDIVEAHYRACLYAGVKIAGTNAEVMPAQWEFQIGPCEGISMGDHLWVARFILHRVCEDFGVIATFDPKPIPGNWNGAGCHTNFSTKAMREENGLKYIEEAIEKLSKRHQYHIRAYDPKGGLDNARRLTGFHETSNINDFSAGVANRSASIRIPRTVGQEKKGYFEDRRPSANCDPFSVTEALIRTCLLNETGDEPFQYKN
T3 sequence (P15104 whole entry): as above

amount of photo-incorporation on a mole to mole basis relative to [γ32P]8N3 ATP ([1]; 42 kD protein in AD CSF): greater
saturation of photoinsertion ([1]; 42 kD protein in AD CSF): 40 to 50 µM
Kd ([1]; 42 kD protein in AD CSF, approximate Kd from photoinsertion, read-out: half maximal photoinsertion): ~10 µM
saturation of photoinsertion ([2]; purified GS): 40 to 50 µM
amount of photo-incorporation on a mole to mole basis relative to [γ32P]8N3 ATP [3]: greater
Structure (SMILES): [N-]=[N+]=Nc1nc(N)c2ncn([C@@H]3O[C@H](COP(=O)(O)OP(=O)(O)OP(=O)(O)O)[C@@H](O)[C@H]3O)c2n1 [2-azido-ATP, 2-azidoadenosine 5'-triphosphate]

Structure (SMILES): [N-]=[N+]=Nc1nc2c(N)ncnc2n1[C@@H]1O[C@H](COP(=O)(O)OP(=O)(O)OP(=O)(O)O)[C@@H](O)[C@H]1O [8-azido-ATP, 8-azidoadenosine 5'-triphosphate]
Kd [1]: ~10 µM
saturation of photoinsertion ([1]; 42 kD protein in AD CSF): 40 to 50 µM
saturation of photoinsertion ([2]; purified GS): 40 to 50 µM

Structure (SMILES): Nc1ncnc2c1ncn2[C@@H]1O[C@H](COP(=O)(O)OP(=O)(O)OP(=O)(O)O)[C@@H](O)[C@H]1O [ATP, adenosine triphosphate]
effect on photolabeling with 8- or 2-azido-ATP ([1]; 42 kD protein in AD CSF, competition by natural nucleotide): decreased the photolabeling
effect on photolabeling with 8- or 2-azido-ATP ([2]; purified GS, competition by natural nucleotide): decreased the photolabeling

Structure (SMILES): [Cl][Mn][Cl] [MnCl2]
effect on photolabeling of GS by 8N3 ATP photolabel ([2]; purified sheep brain GS, 10 μM, FIG. 5): increases dramatically
effect on enzymatic activity of glutamine synthetase [4]: increases the enzymatic activity

Structure (SMILES): O=C(O)O [ammonium bicarbonate]
enhancement of binding/photolabeling by [32P]2N3 ATP ([1]; 42 kD CSF protein, ligand added at 100 mM): about 5 fold
enhancement of binding/photolabeling by [32P]2N3 ATP ([2]; purified GS, ligand added at 100 mM): about 5 fold
